7 compounds from BindingDB's records for doi:10.1016/0922-4106(95)90072-1 (Cocensys, 1995) can be followed below.

Assay [1] addresses Gamma-aminobutyric acid receptor subunit alpha-6 (Homo sapiens, UniProt Q16445).
For assay [2], the target named is Gamma-aminobutyric acid receptor subunit alpha-4 (Homo sapiens, UniProt P48169).
Sequence of Gamma-aminobutyric acid receptor subunit alpha-4 (P48169 whole entry): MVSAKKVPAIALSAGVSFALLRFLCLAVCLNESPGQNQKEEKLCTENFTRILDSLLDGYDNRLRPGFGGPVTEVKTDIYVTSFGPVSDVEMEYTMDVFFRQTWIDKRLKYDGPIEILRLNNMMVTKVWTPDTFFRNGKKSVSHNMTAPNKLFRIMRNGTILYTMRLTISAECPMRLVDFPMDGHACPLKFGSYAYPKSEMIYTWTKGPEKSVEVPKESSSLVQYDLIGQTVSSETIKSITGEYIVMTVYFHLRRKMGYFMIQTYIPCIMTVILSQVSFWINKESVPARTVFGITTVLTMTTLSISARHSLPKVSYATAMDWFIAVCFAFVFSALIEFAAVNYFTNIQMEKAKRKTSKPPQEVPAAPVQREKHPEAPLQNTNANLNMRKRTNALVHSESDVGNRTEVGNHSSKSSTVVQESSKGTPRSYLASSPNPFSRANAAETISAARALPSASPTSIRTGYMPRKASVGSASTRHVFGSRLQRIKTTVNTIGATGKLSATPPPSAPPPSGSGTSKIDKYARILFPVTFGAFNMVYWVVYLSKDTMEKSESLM

Sequence of Gamma-aminobutyric acid receptor subunit alpha-6 (Q16445 whole entry): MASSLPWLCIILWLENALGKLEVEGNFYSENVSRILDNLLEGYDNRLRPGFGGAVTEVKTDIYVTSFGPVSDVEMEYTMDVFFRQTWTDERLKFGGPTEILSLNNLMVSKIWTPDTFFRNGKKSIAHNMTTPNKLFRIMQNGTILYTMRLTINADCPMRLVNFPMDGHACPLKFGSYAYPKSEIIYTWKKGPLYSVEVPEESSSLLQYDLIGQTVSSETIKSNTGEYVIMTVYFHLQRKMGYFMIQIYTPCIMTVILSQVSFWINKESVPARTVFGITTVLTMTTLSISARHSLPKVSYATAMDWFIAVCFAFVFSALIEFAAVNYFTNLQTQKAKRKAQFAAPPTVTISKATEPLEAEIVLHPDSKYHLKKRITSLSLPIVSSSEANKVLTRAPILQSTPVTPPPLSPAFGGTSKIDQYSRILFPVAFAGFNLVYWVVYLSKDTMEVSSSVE

The term Ki denotes a measure of affinity in units of concentration, obtained from inhibition or displacement. Higher therefore signals weaker binding. For `CCOC(=O)c1ncn2c1CN(C)C(=O)c1cc(N=[N+]=[N-])ccc1-2` [RO-154513], the Ki in assay [1] is 11.7 nM.
Regarding `COc1ccc(-n2[nH]c3c(cnc4ccccc43)c2=O)cc1` [2-(4-Methoxy-phenyl)-2,5-dihydro-pyrazolo[4,3-c]quinolin-3-one (CGS 9895)], the Ki in assay [1] came to 43.8 nM; in assay [2] it was 6.8 nM.
The corresponding values for `CCc1c(C(=O)OC)ncc2[nH]c3cc(OC)c(OC)cc3c12` [NSC_104999] are 153 nM and 14.1 nM.
For the compound `COC(=O)c1cc2c(cn1)[nH]c1ccccc12`, the inhibition constant Ki in assay [1] worked out at 3260 nM; in assay [2] it was 310 nM.
For the compound `CNC(=O)c1cc2c(cn1)[nH]c1ccccc12` [CAS_4375], the figures for the inhibition constant Ki in assay [1] and in assay [2] were 2510 nM and 300 nM, respectively.
The corresponding values for `O=c1c2cnc3ccccc3c2[nH]n1-c1ccc(Cl)cc1` are 285 nM and 35.6 nM.
The matching figures for `CC(C)(C)OC(=O)c1ncn2c1C1CCCN1C(=O)c1c(Br)cccc1-2` (stereo not drawn) [8-Bromo-7-oxo-3b,4,5,6-tetrahydro-7H-2,6a,11b-triaza-benzo[g]cyclopenta[e]azulene-3-carboxylic acid tert-butyl ester]: 54.9 nM and 53.5 nM.
